Data from ChEMBL document CHEMBL1139025, “Biological studies of photoinducible phenol quaternary ammonium derivatives” (2006).
Activity calls are given as the source filed them. The calls are words filed in the database; no cut-off is given here.

Experiments:
Format in all cases: functional
Nucleic Acid = assay: Inhibition of DNA transcription by photoactivation at 10 uM
THP-1 [1] = assay: Apoptotic activity against illuminated human THP1 cells at 0.05 mM
THP-1 [2] = assay: Apoptotic activity against human THP1 cells at 0.05 mM

Row | SMILES | Activity (Nucleic Acid) | Activity (THP-1 [1]) | Activity (THP-1 [2])
1 | C[N+](C)(C)Cc1cc(O)c(C[N+](C)(C)C)cc1O | Active |  | 
2 | C[N+](C)(C)Cc1cc(-c2ccc(O)c(C[N+](C)(C)C)c2)ccc1O.[I-].[I-] | Active | 62.03% | 3.01%
